Experimental data: patent US20080293801A1, “Solid Amorphous Dispersions of An Mtp Inhibitor For Treatment of Obesity” (PFizer Inc., priority 2003, published 2008)
“And” between values parts separate entries of the source, which are not always exact repeats. Equal entries are not always repeated. Marks after values point to notes of the source that are not given here.

What was measured:
[1] = Solubility of the lowest energy crystalline form of Drug A in water; assay type: physicochemical; conditions: lowest energy crystalline form presently known
Protocol: Drug A is an MTP inhibitor intended for the treatment of obesity. The solubility of the lowest energy crystalline form of Drug A presently known in water is less than 0.6 μg/ml. Drug A is nonionizable, and has a cLog P of about 7.8. These characteristics contribute to its water insoluble nature.

[2] = In vitro dissolution test in model fasted duodenal solution (MFDS); assay type: physicochemical; conditions: MTC 500 μg/mL; for AUC / Drug A Concentration: MFDS pH 6.5, 37° C.
Protocol: Samples of Example 1 and Control C1 were added to respective microcentrifuge tubes in duplicate. For these tests, a sufficient amount of material was added so that the maximum theoretical concentration of drug (MTC) would have been 500 μg/mL, if all of the drug had dissolved. The tubes were placed in a 37° C. temperature-controlled chamber, and 1.8 mL model fasted duodenal solution, or “MFDS” was added to each respective tube. The MFDS consisted of 1.8 mL PBS containing 0.5 wt % sodium taurocholic acid and 1-palmitoyl-2-oleyl-sn-glycero-3-phosphocholine (NaTC/POPC, with a 4/1 weight ratio) at pH 6.5 and adjusted to 290 mOsm/kg with NaCl:KCl (20.4:1 wt/wt). The samples were quickly mixed using a vortex mixer for about 60 seconds. The samples were centrifuged at 13,000 G at 37° C. for 1 minute. The resulting supernatant solution was then sampled and diluted 1:6 (by volume) with methanol and then analyzed by high-performance liquid chromatography (HPLC) using a Phenomenex Luna, phenyl-hexyl 5 μm column with a mobile phase consisting of 70:30 (vol:vol) acetonitrile: water at a flow rate of 1 ml/min. Drug concentration was measured using UV absorbance at 241 nm. The contents of each respective tube were mixed on the vortex mixer and allowed to stand undisturbed at 37° C. until the next sample was taken. […]
The concentrations of drug obtained in these samples were used to determine the maximum dissolved drug concentration at 90 minutes (MDC90) and the area under the dissolved drug concentration versus time curve (AUC90) during the initial ninety minutes.
For each test, dispersions were added to microcentrifuge tubes in duplicate. For these tests, a sufficient amount of material was added so that the maximum theoretical concentration (MTC) would have been 500 μg/mL, if all of the drug had dissolved. The tubes were placed in a 37° C. temperature-controlled chamber, and 1.8 mL PBS containing 0.5 wt % sodium taurocholic acid and 1-palmitoyl-2-oleyl-sn-glycero-3-phosphocholine (NaTC/POPC, with a 4/1 weight ratio) at pH 6.5 and 290 mOsm/kg (model fasted duodenal solution, “MFDS”) was added to each respective tube. The samples were quickly mixed using a vortex mixer for about 60 seconds. The samples were centrifuged at 13,000 G at 37° C. for 1 minute. The resulting supernatant solution was then sampled and diluted 1:6 (by volume) with methanol and then analyzed by HPLC as described above. The contents of each respective tube were mixed on the vortex mixer and allowed to stand undisturbed at 37° C. until the next sample was taken. […]
The concentrations of drug obtained in these samples were used to determine the MDC90 and the AUC90 during the initial ninety minutes.

solubility [1] [µg/mL] | AUC90 ([2]; area under dissolved drug concentration vs time curve, initial 90 minutes, MFDS) | MDC90 ([2]; maximum dissolved drug concentration, initial 90 minutes, MFDS) | AUC ([2]; time 0 min) [µg·min/mL] | Drug A Concentration ([2]; time 0 min) [µg/mL] | AUC ([2]; time 4 min) [µg·min/mL] | Drug A Concentration ([2]; time 4 min) | Drug A Concentration ([2]; time 10 min) | Drug A Concentration ([2]; time 20 min) | AUC ([2]; time 40 min) | Drug A Concentration ([2]; time 40 min) | AUC ([2]; time 90 min) | AUC ([2]; time 1200 min) [µg·min/mL] | Drug A Concentration ([2]; time 1200 min) [µg/mL] | SMILES
< 0.6 | – | – | – | – | – | – | – | – | – | – | – | – | – | CN(Cc1ccccc1)C(=O)[C@@H](NC(=O)c1cc2cc(NC(=O)c3ccccc3-c3ccc(C(F)(F)F)cc3)ccc2n1C)c1ccccc1 [Drug A, (S)—N-{2-[benzyl(methyl)amino]-2-oxo-1-phenylethyl}-1-methyl-5-[4′-(trifluoromethyl)[1,1′-biphenyl]-2-carboxamido]-1H-indole-2-carboxamide]
– | 170 µg·min/mL and 200 µg·min/mL | 3.1 µg/mL and 3 µg/mL | 0 | 0 | 0 | 0.0* μg/mL and 0 μg/mL | 2.6 µg/mL and 3 µg/mL | 3.1 µg/mL and 3 µg/mL | 93 µg·min/mL and 100 µg·min/mL | 2.6 µg/mL and 3 µg/mL | 170 µg·min/mL and 200 µg·min/mL | 800 | 0.8 | CN(Cc1ccccc1)C(=O)[C@@H](NC(=O)c1cc2cc(NC(=O)c3ccccc3-c3ccc(C(F)(F)F)cc3)ccc2n1C)c1ccccc1 [Example C1]
